Entries after “also recorded” stand apart in the source; their conditions may differ. Read-outs that look alike come from different tables or passages of the source. Ends that are not written are not given here.
How the values were obtained:
[1] = tested on: Xylella fastidiosa subsp. pauca isolate De Donno in Nicotiana tabacum (var. Xanthi); format: in vivo
Xf strain 9a5c = conditions: cited from earlier work
Xf = conditions: 1 mg/mL; cited from earlier work
Xylella fastidiosa cells [2] = format: cell-based
[3] = tested on: Xylella fastidiosa biofilm; format: cell-based; conditions: 50 μM, 20 days, 28 °C
[4] = tested on: Xanthomonas albilineans (Xa), strain CFBP2523; format: cell-based; set-up: key: +++: Clear plaque formation; ++: turbid plaque formation; +: highly turbid plaque formation; -: no plaque formation
E. coli = conditions: cited from earlier work
Xylella fastidiosa cells [5] = format: cell-based; remark: listed apart in the source
S. aureus = conditions: cited from earlier work
[6] = tested on: Xylella fastidiosa subsp. pauca, strain De Donno; format: cell-based
[7] = tested on: Xylella fastidiosa subsp. pauca, strain De Donno; format: cell-based; remark: listed apart in the source
Xylella fastidiosa cells [8] = format: cell-based; remark: listed apart in the source
[9] = tested on: Nicotiana tabacum cv. Xanthi leaves; conditions: in vivo
X. fastidiosa = conditions: cited from earlier work

Compound | effect on Xf biofilm formation (comparison, words) [3] | growth inhibition of Xanthomonas albilineans (plaque formation) [4] | MIC (μM) E. coli (E. coli) | morphological changes of Xf cells under TEM (Xylella fastidiosa cells [2]) | MIC (μM) S. aureus (S. aureus) | reductive activity against Xf cells (OD600, words) [6] | antimicrobial activity on Xf growth in antibiogram [7] | lytic activity by fluorescence microscopy (live green / dead red) (Xylella fastidiosa cells [8]) | further results
CC(=O)N[C@@H](CS)C(=O)O [NAC, N-acetyl-L-cysteine] |  |  |  |  |  |  |  |  | Xf disease symptoms in Xf-infected tobacco plants ([1]; 30 dpi, 100 μL of treatment at inoculation point): did not develop any symptoms; Xf disease symptoms in Xf-infected tobacco leaf ([1]; 45 dpi, positive control treatment): no symptoms; effect on biofilm biomass of Xf strain 9a5c (Xf strain 9a5c): reducing the biofilm biomass; activity against Xf (Xf): biocidal; morphological changes of Xf cells under TEM (Xylella fastidiosa cells [2]; 50 μM, 1 h, room temperature, Xf 10^8 CFU/mL): pore and protrusion formation and condensed cytoplasmic outflow from the outer membrane
FFGKVLKLIRKIF-NH2 [FF13, DASamP1, synthetic antimicrobial peptide, …-NH2] | greater performance than KL29 | +++ | >100 µM | cytoplasmic condensation, loss of interior appearance, and alteration of the outer membrane | 3.1 µM | greatest activity | particularly highly active | moderate lytic activity | reduction in Xf cell viability (v-qPCR) (Xylella fastidiosa cells [5]): twofold reduction in cell viability
FFHHIFRGIVHVGKTIHRLVTG [FG22, Piscidin 1, antimicrobial peptide, source fish] |  | +++ and - | 12.5 µM |  | 3.1 µM |  |  |  | 
GFKDLLKGAAKALVKTVLF-NH2 [GF19, Ascaphin-8] | interfered with biofilm formation in the same manner as NAC; also recorded: greater performance than KL29 | +++ | 12.5 µM | damaged and fragmented cell walls, with complete destruction of the outer and inner bacterial membranes | 3.1 µM | greatest activity | particularly highly active; also recorded: distinct inhibitory activity | highest lytic activities | diameter of halo-shaped tissue dissolving in tobacco leaves [9]: 7 mm; hypersensitive reaction in tobacco leaves [9]: light hypersensitive reaction; reduction in viability of Xf compared to untreated cells (v-qPCR) (Xylella fastidiosa cells [5]): more-than-fourfold reduction in viability
GLLGLLGSVVSHVVPAIVGHF-NH2 [GF21, Maculatin 1.3, antimicrobial peptide, source frog] |  | +++ and - | >100 µM |  | 6.2 µM |  |  |  | 
IKWKKLLRAAKRIL-NH2 [IL14, DASamP2, synthetic antimicrobial peptide, […]-NH2] | greater performance than KL29 | +++ | 3.1 µM | cytoplasmic condensation, loss of interior appearance, and alteration of the outer membrane | 6.2 µM | greatest activity | particularly highly active | moderate lytic activity | reduction in Xf cell viability (v-qPCR) (Xylella fastidiosa cells [5]): twofold reduction in cell viability
Lycotoxin I [IL25] |  | +++ and - | 25 µM |  | 3.1 µM |  |  |  | 
RIVWVRIRRWFV-NH2 [RV12, RIJK2, synthetic antimicrobial peptide, …-NH2] |  | +++ and + |  |  |  |  |  |  | MIC (μM) X. fastidiosa (X. fastidiosa): 12.5 µM
VQFRIRVRIVIRK-NH2 [VK13, 1036, synthetic antimicrobial peptide, […]-NH2] |  | +++ and + |  |  |  |  |  |  | MIC (μM) X. fastidiosa (X. fastidiosa): 12.5 µM
